Paper PMC5650142, “GPR40 partial agonists and AgoPAMs: Differentiating effects on glucose and hormonal secretions in the rodent” (PLoS ONE, 2017)
Several values for one entry are separate records, joined by “and”; a condition that tells them apart may be missing. Identical values can stand only once. Like-named read-outs stand apart in the source and are kept apart here.

Columns and labels:
[1] = test system: GK rats; experiment: GK rat chronic efficacy (28 days: glucose, food intake, body weight, GLP-1, GIP, PYY, insulin, glucagon); type: in vivo; settings: 30 mpk, day 28, fed, individual animals
Procedure: At the start of the study, fed (ambient) blood glucose was measured via glucometer at 1 h post lights on, and animals were selected and sorted into treatment groups based on ambient glucose (n = 10/ GK group, n = 6 WKY control). Blood for baseline incretin measurements was collected in the PM via tail vein. Rats were dosed via oral gavage (PO) at a volume of 5 ml/kg daily at approximately 12:30 PM with either vehicle (0.5% methylcellulose), AP1 at 30 mg/kg, or AP3 at 30 mg/kg. MK-8666, a GPR40 partial agonist synthesized at Merck & Co., Inc., Kenilworth, NJ USA [13], at 30 mg/kg was administered in feed (Research Diets, New Brunswick, NJ) and provided ad lib. All compounds were administered to achieve maximal efficacious exposures determined in acute efficacy studies similar to those acute studies described above. In brief, partial agonists and AgoPAMs were titrated in the acute GK rat experiment described above and the exposure associated with maximal efficacy in glucose lowering was noted. Partial agonists and AgoPAMs were then dosed to maintain those exposures up to 24h post dose. […] Rats from this group and the WKY controls were administered vehicle PO when the vehicle, AP1, and AP3 groups were treated. Fed blood glucose, food intake, and body weights were determined on days 10, 17, 23, and 28 of study at 2 h post lights on. Immediately after these measures were taken on days 10, 17, 23, and 28, food was removed. After 5h of fasting, animals were dosed with vehicle or compound and allowed to rest for an additional hour. Glucose, GLP-1, GIP, and PYY were measured after 6h of fasting at 1 hr post dose. Fed blood glucose is described by animals having had ad libidum access to feed up till the time of sampling and occurred at 2h post-lights on where rats were nearing the end of their nocturnal feeding cycle. Fasted blood glucose is described by blood glucose sampled after 6h of fasting where food was removed at 2h post lights on. Please note that the fasted sample was taken 1h post oral dosing. On day 10, blood was collected from the tail vein (20 μl) after morning glucose measures and after 6 hour fast from a subset of n = 3 rats per treatment group to determine the fed and fasted exposure of the compounds in circulation. The blood was stored at 4°C in 0.1 M sodium citrate for subsequent analysis of drug exposure.
Blood for insulin, glucagon, GLP-1, GIP, and PYY measurements was collected into K2EDTA Microtainer tubes (BD, Franklin Lakes, NJ) pre-treated with DPP4 inhibitor (Millipore, Billerica, MA) and cOmplete™ Protease Inhibitor Cocktail Tablets (Roche Diagnostics, Indianapolis, IN). Tubes were centrifuged for 10 minutes at 5000 RPM, and plasma was aliquotted for analysis. Plasma insulin levels were measured via EIA (Mesoscale Discovery ELISA Kit, Gaithersburg MD). Rat plasma total GLP-1 was measured using Total GLP-1 (ver.2) Assay Kit (Cat#: K150JVC). The measurement of active GLP-1 was carried out in a similar manner as that described for total GLP-1 assay with the exception that MSD Active GLP-1 (ver. 2) assay kit (Cat# K150JWC) was used. Rat plasma glucagon was measured using an in-house glucagon assay developed as a MSD format sandwich immunoassay (Merck & Co., Inc., MRL, Kenilworth, NJ USA). The antibody specificity was cross validated via mass- spec using procedures described in Lee et al. Briefly, MSD Streptavidin Gold plates were coated with 2 μg/ml biotin mouse monoclonal antibody generated to glucagon. Test samples were added to the plates and a separate Sulfo- tagged monoclonal antibody was used to detect the captured glucagon protein (2 μg/ml). The ELISA was carried out in the standard reagents in the MSD format. The plate was read on the SECTOR Imager 6000 Reader. Metabolic hormones GIP (Gastric Inhibitory Polypeptide) and PYY (Peptide YY) were measured in rat plasma using the Rat Metabolic Magnetic Bead Panel (EMD Millipore, Billerica, MA). The assay was performed according to manufacturer protocol. […]

[2] = test system: GK rats; experiment: GK rat acute efficacy (glucose, insulin, glucagon after single dose); type: in vivo; settings: 100 mpk
Procedure: Ambient blood glucose was measured via tail snip with a glucometer (OneTouch Ultra, Lifescan Inc., Milpitas, CA). Body weights were then measured, and food was removed approximately 1 hr post lights on. Animals were sorted into treatment groups based on ambient glucose. At approximately 10 AM, glucose was measured and blood for insulin, glucagon, and drug exposure was collected. […] Each compound tested was dosed at its maximal effective dose determined through a series of dose titrations using this experimental paradigm (data not shown). Effects of treatment on glucose, insulin, and glucagon were measured at 1, 2, 4, and 24 hrs post dose. After the 4 hr blood collection, food was returned overnight and removed the next day at 1 hr post lights on.
Blood for insulin, glucagon, GLP-1, GIP, and PYY measurements was collected into K2EDTA Microtainer tubes (BD, Franklin Lakes, NJ) pre-treated with DPP4 inhibitor (Millipore, Billerica, MA) and cOmplete™ Protease Inhibitor Cocktail Tablets (Roche Diagnostics, Indianapolis, IN). Tubes were centrifuged for 10 minutes at 5000 RPM, and plasma was aliquotted for analysis. Plasma insulin levels were measured via EIA (Mesoscale Discovery ELISA Kit, Gaithersburg MD). Rat plasma total GLP-1 was measured using Total GLP-1 (ver.2) Assay Kit (Cat#: K150JVC). The measurement of active GLP-1 was carried out in a similar manner as that described for total GLP-1 assay with the exception that MSD Active GLP-1 (ver. 2) assay kit (Cat# K150JWC) was used. Rat plasma glucagon was measured using an in-house glucagon assay developed as a MSD format sandwich immunoassay (Merck & Co., Inc., MRL, Kenilworth, NJ USA). The antibody specificity was cross validated via mass- spec using procedures described in Lee et al. Briefly, MSD Streptavidin Gold plates were coated with 2 μg/ml biotin mouse monoclonal antibody generated to glucagon. Test samples were added to the plates and a separate Sulfo- tagged monoclonal antibody was used to detect the captured glucagon protein (2 μg/ml). The ELISA was carried out in the standard reagents in the MSD format. The plate was read on the SECTOR Imager 6000 Reader. Metabolic hormones GIP (Gastric Inhibitory Polypeptide) and PYY (Peptide YY) were measured in rat plasma using the Rat Metabolic Magnetic Bead Panel (EMD Millipore, Billerica, MA). The assay was performed according to manufacturer protocol.

[3] = molecular target: T1, rat GPR40 (Rattus norvegicus, UniProt Q8K3T4); experiment: Rat GPR40 IP1 accumulation assay; type: cell-based
T1 construct: expressed in transfected cells; host or cells: CHO-K1 (methods)
T1 sequence (Q8K3T4 whole entry): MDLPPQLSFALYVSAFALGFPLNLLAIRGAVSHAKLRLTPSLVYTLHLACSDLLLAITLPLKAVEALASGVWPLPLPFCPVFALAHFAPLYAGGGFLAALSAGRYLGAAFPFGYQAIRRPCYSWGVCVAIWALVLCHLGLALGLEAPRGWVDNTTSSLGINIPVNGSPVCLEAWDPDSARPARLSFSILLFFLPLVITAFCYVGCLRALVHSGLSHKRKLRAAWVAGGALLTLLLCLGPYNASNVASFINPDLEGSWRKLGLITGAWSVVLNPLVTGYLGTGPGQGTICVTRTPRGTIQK
Procedure: (§1) Stable cell lines expressing human GPR40 (hGPR40/HEK293), mouse GPR40 (mGPR40/CHO-K1), and rat GPR40 (rGPR40/CHO-K1) were cultured in DMEM media supplemented with 10% FBS, glutamine, non-essential amino acids, and penicillin/streptomycin. hGPR40/HEK293 & mGPR40/CHO-K1 cell media was supplemented with […] G418 (Life Technologies), while rGPR40/CHO-K1 cells were grown in […] blasticidin plus […] hygromycin (Life Technologies). Cell stocks were maintained and grown in a sub-confluent state using standard cell culture procedures. The day before the experiment, the cells were harvested with non-enzymatic cell dissociation buffer and re-suspended in DMEM supplemented with 10% FBS, glutamine, non-essential amino acids, penicillin/streptomycin at 0.15, 0.2 and 0.3 million cells per ml for human, mouse, and rat GPR40, respectively. […] The seeded plates were incubated overnight at 37 C.
(§2) On the day of the experiment, the growth media was removed from the assay by gently patting the assay plates on an absorbent sheet and 10 μl of IP1 stimulation buffer (Cis Bio IP-one Tb HTRF kit) supplemented with 50 mM LiCl is added to each well. Test compounds dissolved in DMSO were serially diluted in ½ log increments starting from 2 mM or 0.2 mM and 50 nl of the compound dilution was acoustically added to each well (final starting concentration 10 μM or 1 μM). Plates were then incubated for 60 minutes at room temperature and 10 μl of detection buffer (prepared as described in the Tb kit) is added to each well. The plates are then incubated one additional hour at room temperature. […] For each assay, a standard curve plate in which IP1 is titrated is also included. […] The percent activity at each concentration of test compound is determined using 0% activation (basal activity) determined in those wells that contain DMSO alone, while 100% activity is determined in wells that contained a concentration of a partial allosteric agonist know to activate GPR40. The % activity is then plotted versus the concentration of test compound and the dose response curve fitted to a standard 4-parameter non-linear regression model using a custom in-house developed software package (Merck & Co., Inc., MRL, Kenilworth, NJ, USA). Maximal % activity and EC50 are then determined for each test compound.

[4] = molecular target: T2, mouse GPR40 (Mus musculus, UniProt Q76JU9); experiment: Mouse GPR40 IP1 accumulation assay; type: cell-based
T2 construct: expressed in transfected cells; host or cells: CHO-K1 (methods)
T2 sequence (Q76JU9 whole entry): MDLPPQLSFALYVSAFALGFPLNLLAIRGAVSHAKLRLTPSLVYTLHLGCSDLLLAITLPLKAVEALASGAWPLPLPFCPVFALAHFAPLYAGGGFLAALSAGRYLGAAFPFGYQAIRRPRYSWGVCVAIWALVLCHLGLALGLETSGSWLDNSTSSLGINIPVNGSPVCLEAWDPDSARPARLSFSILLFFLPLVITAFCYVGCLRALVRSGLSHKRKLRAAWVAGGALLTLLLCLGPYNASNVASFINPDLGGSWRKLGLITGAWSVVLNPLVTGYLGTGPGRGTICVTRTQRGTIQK
Procedure: as §1, §2

C[C@H](C(=O)O)[C@H](c1ccc2c(c1)O[C@H](C1CN(Cc3cc(C(F)(F)F)ccc3C(F)(F)F)C1)CC2)C1CC1 [P3]
Fed glucose on day 28 (Fig 3B) [1]: 141 and 132 and 113 and 119 and 112 and 106 and 116 and 101

Cc1cc(OCCCS(C)(=O)=O)cc(C)c1-c1cccc(COc2ccc3c(c2)OC[C@H]3CC(=O)O)c1 [TAK]
Plasma Glucagon Over Time (Fig 2C) ([2]; time 0, individual animals): 75.2366 pg/mL and 59.5419 pg/mL and 46.7473 pg/mL and 119.065 pg/mL and 82.5246 pg/mL and 83.5453 pg/mL and 74.4881 pg/mL and 90.3444 pg/mL | Plasma Insulin Over Time (Fig 2B) ([2]; time 0, individual animals): 2.655 ng/mL and 1.525 ng/mL and 2.703 ng/mL and 2.889 ng/mL and 1.936 ng/mL and 1.972 ng/mL and 2.503 ng/mL and 2.551 ng/mL | Plasma Glucagon Over Time (Fig 2C) ([2]; time 1, individual animals): 168.277 pg/mL and 120.989 pg/mL and 104.57 pg/mL and 184.364 pg/mL and 130.682 pg/mL and 112.051 pg/mL and 81.0192 pg/mL and 132.45 pg/mL | Plasma Insulin Over Time (Fig 2B) ([2]; time 1, individual animals): 3.3854 ng/mL and 2.854 ng/mL and 4.397 ng/mL and 4.229 ng/mL and 2.551 ng/mL and 2.055 ng/mL and 2.175 ng/mL and 2.74 ng/mL | Plasma Glucagon Over Time (Fig 2C) ([2]; time 2, individual animals): 165.323 pg/mL and 244.359 pg/mL and 138.27 pg/mL and 211.843 pg/mL and 72.9369 pg/mL and 186.55 pg/mL and 94.6201 pg/mL and 160.38 pg/mL | Plasma Insulin Over Time (Fig 2B) ([2]; time 2, individual animals): 2.858 ng/mL and 2.437 ng/mL and 3.152 ng/mL and 3.268 ng/mL and 1.276 ng/mL and 1.644 ng/mL and 1.778 ng/mL and 2.202 ng/mL | Plasma Glucagon Over Time (Fig 2C) ([2]; time 4, individual animals): 85.2047 pg/mL and 62.7395 pg/mL and 105.981 pg/mL and 18.1244 pg/mL and 124.809 pg/mL and 199.712 pg/mL and 103.043 pg/mL and 175.312 pg/mL | Plasma Insulin Over Time (Fig 2B) ([2]; time 4, individual animals): 1.494 ng/mL and 1.787 ng/mL and 2.636 ng/mL and 1.66 ng/mL and 1.848 ng/mL and 1.214 ng/mL and 2.191 ng/mL and 1.8763 ng/mL | Plasma Glucagon Over Time (Fig 2C) ([2]; time 24, individual animals): 86.4436 pg/mL and 115.249 pg/mL and 67.5931 pg/mL and 36.8268 pg/mL and 81.8289 pg/mL and 118.991 pg/mL and 35.1523 pg/mL and 94.7909 pg/mL | Plasma Insulin Over Time (Fig 2B) ([2]; time 24, individual animals): 1.093 ng/mL and 1.2004 ng/mL and 2.002 ng/mL and 0.9338 ng/mL and 1.238 ng/mL and 1.808 ng/mL and 1.437 ng/mL and 1.841 ng/mL

CC#C[C@@H](CC(=O)O)c1ccc(OCc2cccc(-c3ccc(C(F)(F)F)cc3)c2)cc1 [AMG-837, reference compound]
EC50 ([3]; EC50 (nM), Rat GPR40, Functional Assay, individual determinations): 1.9 nM and 1.6 nM and 1.2 nM and 0.9 nM and 1.8 nM and 1.1 nM | EC50 ([3]; individual determinations, read-out: EC50 (nM), Rat GPR40, Functional Assay): 1.3 nM and 2.2 nM | EC50 ([3]; mean ± SD, n = 2–20, IP accumulation, read-out: Potency [EC50, nM] ± SD, Rat): 1.5 ± 0.41 nM | EC50 ([4]; EC50 (nM), Mouse GPR40, Functional Assay, individual determinations): 2.6 nM and 3.6 nM and 1.7 nM and 1.1 nM and 1.8 nM | EC50 ([4]; Potency [EC50, nM] ± SD, Mouse, mean ± SD, n = 2–20, IP accumulation): 1.9 ± 0.76 nM | EC50 ([4]; individual determinations, read-out: EC50 (nM), Mouse GPR40, Functional Assay): 2 nM
